Data set [1] can be described thus: Machine-vision-based single-particle analysis (SPA) solubility measurement, pH-solubility profile. The format is physicochemical. The method, then:
The SPA measurements were carried out as already previously described by Svanbäck et al. and Štukelj et al.[17],[19],[20] Briefly, the two main components of the SPA method are the flow-through setup and the analysis software. The flow-through setup enables trapping and machine-vision tracking of drug particles under steady flow–sink–conditions. The average measurement time is 5 min. The captured images are then analyzed using custom-made software, which is capable of semiautomatic particle recognition and tracking of the individual particle morphology throughout the measurement. The decrease in size, under sink conditions, according to Noyes and Whitney, is directly proportional to the equilibrium solubility of the compound. In this way, the solubility data from the images is extracted. Depending on the number of particles, the reported solubility values are an average of up to several hundred individual particles. For in-depth description and visuals, readers are directed to the three original papers cited above.

For data set [2] the following is noted: cited from earlier work.
A short description of data set [3]: Miniaturized shake-flask (SF) experiment in USP buffers with HPLC-UV, pH measurement and XRPD of remaining solids. The format is physicochemical. The procedure:
For NAP, both phosphate and borate buffers were used at pH 8.0. […] At 48, 72, and 96 h the rotation was stopped, pHs were measured, and samples were centrifuged at constant temperature and 21 100g for 15 min prior to sampling of the supernatant. The supernatants were appropriately diluted and analyzed with reverse-phase HPLC-UV. After 96 h, the solids were extracted and analyzed using XRPD. […] Drug concentration in the supernatants was determined using an Agilent High Performance Liquid Chromatography (HPLC) 1260 system (Agilent Technologies, Germany) coupled with a Phenomenex Gemini NX-C18, 3 μm, 100 × 4.6 mm column (Phenomenex, Torrace, CA). The temperature of the column was set to 30 °C. The mobile phase was 0.2% H3PO4:acetonitrile (40:60, v:v for DIC and 50:50, v:v for NAP) with a flow rate of 1 mL/min. The injection volume was 20 μL, and detection was performed at 276 nm for DIC and 254 nm for NAP. Standard solutions of DIC and NAP were prepared in 0.2% H3PO4:acetonitrile (50:50, v:v) and analyzed with HPLC-UV to construct the calibration curve. […] To determine the solid-state form of the initial samples, XRPD diffractograms were recorded with an Aeris diffractometer (Malvern Panalytical B.V., Almelo, The Netherlands) using Cu Kα radiation (λ = 1.540598 Å) and a divergence slit of 0.76 mm. […] Measurements were performed in triplicate with independent samples. Additional measurements using XRPD were performed for the remaining solids after the 96 h miniaturized SF experiments.

Setting [4] is: 0.05 M USP buffer Borate pH 8.0.
The mark [5] stands for this setting: 0.05 M USP buffer Borate pH 9.0.
[6] abbreviates: 0.05 M USP buffer Phosphate pH 6.0.
Setting [7] is: 0.05 M USP buffer Phosphate pH 7.0.
[8] abbreviates: 0.05 M USP buffer Phtalate pH 3.0.
The mark [9] stands for this setting: 0.05 M USP buffer Phtalate pH 4.0.
[10] abbreviates: 0.05 M USP buffer Phtalate pH 5.0.
Where [11] appears, read: starting material free acid, after 96 h.

Structures are written as SMILES. Converted amounts (≈) assume the structure as drawn. Marks after values point to notes of the source that are not given here.

For `O=C(O)Cc1ccccc1Nc1c(Cl)cccc1Cl` [diclofenac sodium], the “pHmax′ SPA (apparent pHmax)” value in data set [1] (intersect of the two regions of the SPA pH-solubility profile, started with anhydrous salt) came to 7.35. In addition, the pHmax in data set [1] (linear extrapolation of pH-corrected SPA values of free acid to the SF-determined solubility of the salt (Figure 2b / 5b)) is on record as 7.98. Also, in data set [1] (region below pH 8), the “SPA solubility upon disproportionation compared to the free acid” value is listed as “higher solubility upon disproportionation”. In addition, in data set [2], the pHmax lit. entry was “∼8 ^a^, ^e”. Further, the “solid-state form at end of SF experiment (XRPD)” value (“solid-state form at end” for short) is “converted into its hydrate form” in data set [3] (starting material anhydrous salt, initial pH 6.0 and 8.0); “converted into a free acid form” in data set [3] (starting material salt, initial pH 2.0 and 4.0).

As a reminder, the solubility is the concentration that dissolves in the medium under given conditions. With `O=C(O)Cc1ccccc1Nc1c(Cl)cccc1Cl` [diclofenac, Diclofenac], the solubility at 5 min in data set [1] (read-out: S0 SPA (intrinsic solubility)) came out at 0.6 ± 0.3 µg/mL (≈ 2.03 µM). Further, the “Measured pH of miniaturized SF experiment” value (shortened to “Measured pH”) in data set [3] (setting [4]) is on record as 7.0; in data set [3] (setting [5]) it was 7.8; in data set [3] (0.05 M USP buffer HCl pH 2.0), 2.0; in data set [3] (setting [6]) it was 6.0; in data set [3] (setting [7]), 6.9; in data set [3] (setting [8]), 3.00. In addition, the “Measured pH” value worked out at 4.0 in data set [3] (setting [9]) and 4.9 in data set [3] (setting [10]). In addition, the “solid-state form at end” value in data set [3] (setting [11]) is recorded as “remained in the same form throughout the experiment”.

Take `COc1ccc2cc([C@H](C)C(=O)O)ccc2c1` [naproxen sodium]: the pHmax lit. entry in data set [2] is recorded as “∼8 ^c”. The “solid-state form at end” value in data set [3] (starting material anhydrous salt, pH 8.0, borate and phosphate buffer) is given as “converted into its hydrate form”; in data set [3] (starting material salt, initial pHs 2.0, 4.0 and 6.0), “converted into a free acid”.

As for `COc1ccc2cc([C@H](C)C(=O)O)ccc2c1` [naproxen, Naproxen], the “Measured pH” value in data set [3] (setting [4]) was determined as 6.0; in data set [3] (setting [5]) it was 6.8; in data set [3] (0.05 M USP buffer HCl pH 2.0), 1.9; in data set [3] (setting [6]), 5.8; in data set [3] (setting [7]), 6.6; in data set [3] (0.05 M USP buffer Phosphate pH 8.0), 6.9. The “Measured pH” value is 3.0 in data set [3] (setting [8]), 4.1 in data set [3] (setting [9]) and 5.0 in data set [3] (setting [10]). Further, the “solid-state form at end” value in data set [3] (setting [11]) is recorded as “the same form remained throughout the experiment”.
